Data taken from ChEMBL document CHEMBL6114967, “Design and synthesis of novel sulfur-substituted triptolide with the ability to induce autophagy through inhibition of SRSF1 expression” (Eur J Med Chem, 2025).
Activity calls are given as the source filed them. No cut-off for these calls is given here.

Experiments:
AGS [1] = test: Downregulation of SRSF1 mRNA expression in human AGS cells incubated for 24 hrs by SYBR green dye based RT-qPCR analysis; type: functional, cell-based; details: dose 0.5-2 µM
HepG2 = test: Antiproliferative activity against human HepG2 cells assessed as inhibition of cell proliferation incubated for 72 hrs by MTT assay; type: functional, cell-based; details: HepG2, 72 h
BGC-823 = test: Antiproliferative activity against human BGC-823 cells assessed as inhibition of cell proliferation incubated for 72 hrs by MTT assay; type: functional, cell-based; details: BGC-823, 72 h
A549 = test: Antiproliferative activity against human A549 cells assessed as inhibition of cell proliferation incubated for 72 hrs by MTT assay; type: functional, cell-based; details: A549, 72 h
HGC-27 [2] = test: Induction of apoptosis in human HGC-27 cells assessed as early apoptotic cells at 0.5 uM incubated for 48 hrs by annexin V-FITC and PI staining based flow cytometry analysis (reference value: 3.13%); type: functional
HGC-27 [3] = test: Induction of apoptosis in human HGC-27 cells assessed as late apoptotic cells at 0.5 uM incubated for 48 hrs by annexin V-FITC and PI staining based flow cytometry analysis (reference value: 5.02%); type: functional
HGC-27 [4] = test: Induction of apoptosis in human HGC-27 cells assessed as late apoptotic cells at 1 uM incubated for 48 hrs by annexin V-FITC and PI staining based flow cytometry analysis (reference value: 5.02%); type: functional
HGC-27 [5] = test: Induction of apoptosis in human HGC-27 cells assessed as viable cells at 2 uM incubated for 48 hrs by annexin V-FITC and PI staining based flow cytometry analysis (reference value: 91.8%); type: functional; details: read-out: Activity
AGS [6] = test: Induction of apoptosis in human AGS cells assessed as viable cells at 0.5 uM incubated for 48 hrs by annexin V-FITC and PI staining based flow cytometry analysis (reference value: 92.0%); type: functional; details: read-out: Activity
AGS [7] = test: Induction of apoptosis in human AGS cells assessed as early apoptotic cells at 0.5 uM incubated for 48 hrs by annexin V-FITC and PI staining based flow cytometry analysis (reference value: 4.44%); type: functional
AGS [8] = test: Induction of apoptosis in human AGS cells assessed as late apoptotic cells at 0.5 uM incubated for 48 hrs by annexin V-FITC and PI staining based flow cytometry analysis (reference value: 3.15%); type: functional
AGS [9] = test: Induction of apoptosis in human AGS cells assessed as necrotic cells at 0.5 uM incubated for 48 hrs by annexin V-FITC and PI staining based flow cytometry analysis (reference value: 0.44%); type: functional
AGS [10] = test: Induction of apoptosis in human AGS cells assessed as early apoptotic cells at 1 uM incubated for 48 hrs by annexin V-FITC and PI staining based flow cytometry analysis (reference value: 4.44%); type: functional
AGS [11] = test: Induction of apoptosis in human AGS cells assessed as late apoptotic cells at 1 uM incubated for 48 hrs by annexin V-FITC and PI staining based flow cytometry analysis (reference value: 3.15%); type: functional
AGS [12] = test: Induction of apoptosis in human AGS cells assessed as viable cells at 2 uM incubated for 48 hrs by annexin V-FITC and PI staining based flow cytometry analysis (reference value: 92.0%); type: functional; details: read-out: Activity
AGS [13] = test: Induction of apoptosis in human AGS cells assessed as early apoptotic cells at 2 uM incubated for 48 hrs by annexin V-FITC and PI staining based flow cytometry analysis (reference value: 4.44%); type: functional
HGC-27 [14] = test: Downregulation of Bcl-xl expression in human HGC-27 cells at 0.5 to 2 uM incubated overnight by Western blotting analysis; type: functional, cell-based; details: dose 0.5-2 µM
HGC-27 [15] = test: Induction of apoptosis in human HGC-27 cells assessed as increase in cleaved PARP expression at 0.5 to 2 uM incubated overnight by Western blotting analysis; type: functional, cell-based; details: dose 0.5-2 µM
HGC-27 [16] = test: Induction of apoptosis in human HGC-27 cells assessed as increase in cleaved caspase-3 expression at 0.5 to 2 uM incubated overnight by Western blotting analysis; type: functional, cell-based; details: dose 0.5-2 µM
AGS [17] = test: Induction of apoptosis in human AGS cells assessed as increase in cleaved caspase-3 expression at 0.5 to 2 uM incubated overnight by Western blotting analysis; type: functional, cell-based; details: dose 0.5-2 µM
HGC-27 [18] = test: Induction of cell cycle arrest in human HGC-27 cells assessed as increase in S phase ratio at 0.5 to 2 uM incubated for 24 hrs by staining based flow cytometric analysis ( Rvb = 50.19%); type: functional; details: dose 0.5-2 µM
AGS [19] = test: Induction of cell cycle arrest in human AGS cells assessed as increase in S phase ratio at 0.5 to 2 uM incubated for 24 hrs by staining based flow cytometric analysis ( Rvb = 32.86%); type: functional; details: dose 0.5-2 µM
AGS [20] = test: Induction of cell cycle arrest in human AGS cells assessed as increase in P21 expression at 0.5 to 2 uM by Western blotting analysis; type: functional, cell-based; details: dose 0.5-2 µM
HGC-27 [21] = test: Induction of cell cycle arrest in human HGC-27 cells assessed as reduction in CyclinE2 expression at 0.5 to 2 uM by Western blotting analysis; type: functional, cell-based; details: dose 0.5-2 µM
HGC-27 [22] = test: Antitumor activity against human HGC-27 cells xenografted in male BALB/c nude mouse assessed as tumor growth suppression administered intraperitoneally every day for 15 days; type: functional, cell-based; details: dose 25-100 mg/kg, route ip, time 15.0 day
HGC-27 [23] = test: Antitumor activity against human HGC-27 cells xenografted in male BALB/c nude mouse assessed as tumor growth inhibition at 100 mg/kg, ip administered every day for 15 days relative to control; type: functional; details: HGC-27, 360 h, time 15 day, read-out: TGI
[24] = Toxicity in male BALB/c nude mouse assessed as change in body weight at 25 to 100 mg/kg, ip administered daily and measured after 15 days; type: organism-based; details: in vivo, 360 h, dose 25-100 mg/kg, time 15 day
HGC-27 [25] = test: Downregulation of SRSF1 mRNA expression in human HGC-27 cells at 2 uM incubated for 24 hrs; type: functional, cell-based
HGC-27 [26] = test: Upregulation of BECN1 mRNA expression in human HGC-27 cells at 2 uM incubated for 24 hrs; type: functional, cell-based
HGC-27 [27] = test: Upregulation of MAP1LC3B mRNA expression in human HGC-27 cells at 2 uM incubated for 24 hrs; type: functional, cell-based
HGC-27 [28] = test: Downregulation of RNA splicing pathway in human HGC-27 cells at 2 uM incubated for 24 hrs by GESA; type: functional, cell-based
HGC-27 [29] = test: Downregulation of SRSF1 protein level in human HGC-27 cells at 0.5 to 2 uM by Western blotting analysis; type: functional, cell-based; details: dose 0.5-2 µM
AGS [30] = test: Induction of autophagy in human AGS cells assessed as upregulation of ATG5 protein level at 0.5 to 2 uM incubated for 48 hrs by Western blotting analysis; type: functional, cell-based; details: dose 0.5-2 µM
AGS [31] = test: Induction of autophagy in human AGS cells assessed as downregulation of P62 protein level at 0.5 to 2 uM incubated for 48 hrs by Western blotting analysis; type: functional, cell-based; details: dose 0.5-2 µM
[32] = Toxicity in male ICR mouse assessed as body weight gain at 1 g/Kg, ip measured after 7 days; type: organism-based; details: in vivo, 1000 mg/kg, 168 h, time 7 day
[33] = Acute toxicity in male ICR mouse assessed as lethal dose administered as ip; details: in vivo
HGC-27 [34] = test: Induction of autophagy in human HGC-27 cells assessed as decrease in P62 protein level in tumor tissue at 25 to 100 mg/kg, ip administered daily; type: functional, organism-based; details: dose 25-100 mg/kg

Compound: CC(C)[C@]12O[C@H]1[C@@H]1O[C@]13[C@]1(O[C@H]1C[C@H]1C4=C(CC[C@@]13C)C(=S)OC4)[C@@H]2O
- Activity (AGS [1]): Dose-dependent-effect
- IC50 (HepG2): 350 nM
- IC50 (BGC-823): 1330 nM
- IC50 (A549): 6.93 µM
- Activity (HGC-27 [2]): 3.5%
- Activity (HGC-27 [3]): 10.5%
- Activity (HGC-27 [4]): 9.29%
- viability at 2 µM (HGC-27 [5]): 52%
- viability at 0.5 µM (AGS [6]): 82.3%
- Activity (AGS [7]): 9.27%
- Activity (AGS [8]): 7.89%
- Activity (AGS [9]): 0.55%
- Activity (AGS [10]): 17.2%
- Activity (AGS [11]): 17%
- viability at 2 µM (AGS [12]): 35.9%
- Activity (AGS [13]): 31.6%
- Activity (HGC-27 [14]): Active
- Activity (HGC-27 [15]): Active
- Activity (HGC-27 [16]): Active
- Activity (AGS [17]): Active
- Activity (HGC-27 [18]): 75.34%
- Activity (AGS [19]): 52.16%
- Activity (AGS [20]): Active
- Activity (HGC-27 [21]): Active
- Activity (HGC-27 [22]): Dose-dependent-effect
- inhibition in vivo at 100 mg/kg (HGC-27 [23]): 82.7%
- Activity [24]: Non-toxic
- Activity (HGC-27 [25]): Active
- Activity (HGC-27 [26]): Active
- Activity (HGC-27 [27]): Active
- Activity (HGC-27 [28]): Active
- Activity (HGC-27 [29]): Active
- Activity (AGS [30]): Active
- Activity (AGS [31]): Active
- Activity [32]: Non-toxic
- LD50 [33]: > 1000 mg/kg
- Activity (HGC-27 [34]): Active
